According to patent publication US10744457B2, “Electrochemical separator” (Hamilton Sundstrand Corporation, priority 2017, dated 2020):

Assay: susceptibility to oxidation in the presence of free oxygen
Format: physicochemical
Settings: inferred from redox potential
Description: Another example would be an anthraquinone functionalized with sulfonate groups, such as 2,7 anthraquinone disulfonic acid. The 1,2 benzoquinone disulfonic acid has a higher reduction-oxidation potential than anthraquinone (approximately 0.8V versus 0.2V, as determined against a reversible hydrogen electrode).

O=C1c2ccc(S(=O)(=O)O)cc2C(=O)c2cc(S(=O)(=O)O)ccc21 [2,7 anthraquinone disulfonic acid]
oxidation in the presence of oxygen: more susceptible to oxidation in the presence of free oxygen
